Test results: article PMC7195332 (Bioorganic & Medicinal Chemistry Letters, 2019)

Columns and labels:
[1] = molecular target: Recombinant human Cyclophilin D protein (amino acids 44-207, K175I) (Homo sapiens, UniProt P30405, K175I); assay: CypD SPR binding assay; conditions: for CypD LE (ligand binding efficiency based on the SPR KDs): fragment hits; for SPR binding CypD LE: ligand binding efficiency based on SPR KDs
[2] = molecular target: CypD (30-207 aa, human recombinant) (Homo sapiens, UniProt P30405); assay: Cyclophilin D biochemical FP assay; type: binding; conditions: for Biochemical CypD FP assay LE: ligand binding efficiency based on biochemical FP IC50s
CypD (30-207 aa, human recombinant), sequence (P30405 30-207): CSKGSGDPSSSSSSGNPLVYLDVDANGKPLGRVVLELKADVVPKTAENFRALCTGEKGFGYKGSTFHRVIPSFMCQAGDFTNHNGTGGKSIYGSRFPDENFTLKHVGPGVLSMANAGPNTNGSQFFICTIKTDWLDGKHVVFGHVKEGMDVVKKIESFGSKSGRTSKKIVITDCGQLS

Recombinant human Cyclophilin D protein (amino acids 44-207, K175I), sequence (P30405 44-207 K175I): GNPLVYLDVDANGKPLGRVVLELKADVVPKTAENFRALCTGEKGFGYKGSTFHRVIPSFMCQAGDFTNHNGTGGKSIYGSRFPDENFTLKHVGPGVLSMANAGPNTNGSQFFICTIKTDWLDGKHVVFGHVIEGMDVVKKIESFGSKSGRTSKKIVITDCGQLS

| IC50 [2] [µM] | SPR binding CypD LE [1] | Compound | further results |
| --- | --- | --- | --- |
| 0.75 |  | CSc1ccccc1[C@H]1CCCN1C(=O)CNC(=O)NCc1ccc(N)cc1 [compound 2, reference compound] | Kd [1]: 0.23 µM |
|  |  | O[C@@H]1CO[C@@H]2C[C@H]1Nc1ccc(F)cc12 [compound 3] | CypD LE (ligand binding efficiency based on the SPR KDs) [1]: 0.2 |
|  |  | CCN1Cc2cc3c(cc2NCCC1=O)OCO3 [compound 4] | CypD LE (ligand binding efficiency based on the SPR KDs) [1]: 0.16 |
|  |  | CCn1nnc(NC(=O)c2ccccc2)n1 [compound 6] | CypD LE (ligand binding efficiency based on the SPR KDs) [1]: 0.21 |
|  |  | O=C(NCc1ccccn1)C(=O)NC1CCCC1 [compound 8] | CypD LE (ligand binding efficiency based on the SPR KDs) [1]: 0.22 |
| 10 |  | CSc1ccccc1[C@H]1CCCN1C(=O)CN(C)C(=O)NCc1ccc2c(c1)[C@H]1C[C@@H](N2)[C@H](O)CO1 [compound 18] |  |
| 54 |  | CSc1ccccc1[C@H]1CCCN1C(=O)CNC(=O)CCc1ccc2c(c1)[C@@H]1C[C@H](N2)[C@H](O)CO1 [compound 19] |  |
| 0.19 | 0.25 | CCN1Cc2cc(CNC(=O)NCC(=O)N3CCC[C@@H]3c3ccccc3SC)ccc2NCCC1=O [compound 20] |  |
| > 100 | 0.13 | CCN1Cc2cc(NC(=O)NCC(=O)N3CCC[C@@H]3c3ccccc3SC)ccc2NCCC1=O [compound 21] |  |
| 4.1 | 0.21 | CCN1Cc2cc(CCC(=O)NCC(=O)N3CCC[C@@H]3c3ccccc3SC)ccc2NCCC1=O [compound 22] | Biochemical CypD FP assay LE [2]: 0.21 |
| > 100 | 0.12 | CCN1Cc2cc(CCC(=O)NCCC(=O)N3CCC[C@@H]3c3ccccc3SC)ccc2NCCC1=O [compound 23] |  |
| > 100 |  | O=C(NCc1ccc2c(c1)[C@H]1C[C@@H](N2)[C@H](O)CO1)C(=O)N1CCCC1 [compound 29] | Kd [1]: > 1500 µM |
|  | 0.19 | O=C(NCc1ccc2c(c1)[C@@H]1C[C@H](N2)[C@H](O)CO1)C(=O)N1CCCC1 [compound 30] | Biochemical CypD FP assay LE [2]: 0.16 |
| 870 |  | O=C(NCc1ccc2c(c1)[C@@H]1C[C@H](N2)[C@H](O)CO1)C(=O)NC1CCCC1 [compound 30] | Kd [1]: 217 µM |
| > 100 | 0.16 | CSc1ccccc1[C@H]1CCCN1C(=O)C(=O)NCc1ccc2c(c1)[C@H]1C[C@@H](N2)[C@H](O)CO1 [compound 31] |  |
| > 30 |  | CSc1ccccc1[C@@H]1CCCN1C(=O)C(=O)NCc1ccc2c(c1)[C@H]1C[C@@H](N2)[C@H](O)CO1 [compound 32] |  |
| 80 |  | CCN1Cc2cc(CNC(=O)CN3C(=O)[C@@H]4[C@H]5CC[C@H](C5)[C@@H]4C3=O)ccc2NCCC1=O [compound 34] | Kd [1]: 51 µM; Biochemical CypD FP assay LE [2]: 0.18 |
| > 1000 |  | CCN1Cc2cc(NC(=O)CN3C(=O)C4C(C3=O)[C@H]3CC[C@@H]4C3)ccc2NCCC1=O (stereo partly drawn) [compound 35] |  |
| 490 |  | Nc1ccc(CCNC(=O)CN2C(=O)C3C4CCC(C4)C3C2=O)cc1 (stereo not drawn) [compound 37] | Biochemical CypD FP assay LE [2]: 0.18 |
|  |  | O=C(CN1C(=O)C2C3CCC(C3)C2C1=O)NCc1ccc2c(c1)CCCN2 (stereo not drawn) [compound 38] | potency improvement compared with 36 [2]: 2 fold |
| 1.7 | 0.26 | O=C(CN1C(=O)[C@@H]2[C@@H]3CC[C@@H](C3)[C@@H]2C1=O)NCc1ccc2c(c1)[C@H]1C[C@@H](N2)[C@H](O)CO1 [compound 39] | Biochemical CypD FP assay LE [2]: 0.26 |
| 0.735 | 0.25 | O=C(CN1C(=O)[C@@H]2[C@H]3CC[C@H](C3)[C@@H]2C1=O)NCc1ccc2c(c1)[C@H]1C[C@@H](N2)[C@H](O)CO1 [compound 40, 2-(exo-3,5-Dioxo-4-aza-tricyclo[5.2.1.02,6]dec-4-yl)-N-((1R,9R,10S)-10-hydroxy-12-oxa-8-aza-tricyclo[7.3.1.02,7]trideca-2(7),3,5-trien-4-ylmethyl)-acetamide] | Biochemical CypD FP assay LE [2]: 0.27 |
